According to PubChem BioAssay (NCI):
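A five-concentration, 48-hour dose response in 96-well plates underlies each endpoint, interpolated linearly between surrounding concentrations. GI50 = concentration required for 50% inhibition of growth. TGI: concentration producing complete growth inhibition.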

Legend:
Assay in all cases: NCI tumour cell line growth inhibition, 48 h
786-0 renal = tested on: 786-0 renal
A498 renal = tested on: A498 renal
A549 NSCLC = tested on: A549 NSCLC
ACHN renal = tested on: ACHN renal
BT-549 breast = tested on: BT-549 breast
CAKI-1 renal = tested on: CAKI-1 renal
CCRF-CEM leukemia = tested on: CCRF-CEM leukemia
COLO 205 colon = tested on: COLO 205 colon
DU-145 prostate = tested on: DU-145 prostate
EKVX NSCLC = tested on: EKVX NSCLC
HCC-2998 colon = tested on: HCC-2998 colon
HCT-116 colon = tested on: HCT-116 colon
HCT-15 colon = tested on: HCT-15 colon
HL-60(TB) leukemia = tested on: HL-60(TB) leukemia
HOP-62 NSCLC = tested on: HOP-62 NSCLC
HOP-92 NSCLC = tested on: HOP-92 NSCLC
HS 578T breast = tested on: HS 578T breast
HT29 colon = tested on: HT29 colon
IGROV1 ovarian = tested on: IGROV1 ovarian
K-562 leukemia = tested on: K-562 leukemia
KM12 colon = tested on: KM12 colon
LOX IMVI melanoma = tested on: LOX IMVI melanoma
M14 melanoma = tested on: M14 melanoma
MALME-3M melanoma = tested on: MALME-3M melanoma
MCF7 breast = tested on: MCF7 breast
MDA-MB-231 breast = tested on: MDA-MB-231 breast
MDA-MB-435 = tested on: MDA-MB-435
MOLT-4 leukemia = tested on: MOLT-4 leukemia
NCI-H226 lung = tested on: NCI-H226 lung
NCI-H23 lung = tested on: NCI-H23 lung
NCI-H460 lung = tested on: NCI-H460 lung
NCI-H522 lung = tested on: NCI-H522 lung
NCI/ADR-RES ovarian = tested on: NCI/ADR-RES ovarian
OVCAR-3 ovarian = tested on: OVCAR-3 ovarian
OVCAR-4 ovarian = tested on: OVCAR-4 ovarian
OVCAR-5 ovarian = tested on: OVCAR-5 ovarian
OVCAR-8 ovarian = tested on: OVCAR-8 ovarian
PC-3 prostate = tested on: PC-3 prostate
RPMI-8226 leukemia = tested on: RPMI-8226 leukemia
RXF 393 renal = tested on: RXF 393 renal
SF-268 CNS = tested on: SF-268 CNS
SF-295 CNS = tested on: SF-295 CNS
SF-539 CNS = tested on: SF-539 CNS
SK-MEL-2 melanoma = tested on: SK-MEL-2 melanoma
SK-MEL-28 melanoma = tested on: SK-MEL-28 melanoma
SK-MEL-5 melanoma = tested on: SK-MEL-5 melanoma
SK-OV-3 ovarian = tested on: SK-OV-3 ovarian
SN12C renal = tested on: SN12C renal
SNB-19 CNS = tested on: SNB-19 CNS
SNB-75 CNS = tested on: SNB-75 CNS
SR leukemia = tested on: SR leukemia
SW-620 colon = tested on: SW-620 colon
T-47D breast = tested on: T-47D breast
TK-10 renal = tested on: TK-10 renal
U251 CNS = tested on: U251 CNS
UACC-257 melanoma = tested on: UACC-257 melanoma
UACC-62 melanoma = tested on: UACC-62 melanoma
UO-31 renal = tested on: UO-31 renal

## CNC(=O)c1cccc(C#Cc2cncnc2Nc2ccc(OCc3cccc(F)c3)c(Cl)c2)c1
786-0 renal
  GI50: 6.33 µM
  TGI: > 25 µM
A498 renal
  GI50: 1.84 µM
  TGI: 10.9 µM
A549 NSCLC
  GI50: 3.85 µM
  TGI: 8.9 µM
ACHN renal
  GI50: 4.18 µM
  TGI: 24.9 µM
BT-549 breast
  GI50: 8.56 µM
  TGI: > 25 µM
CAKI-1 renal
  GI50: 2.09 µM
  TGI: > 25 µM
CCRF-CEM leukemia
  GI50: > 25 µM
  TGI: > 25 µM
COLO 205 colon
  GI50: 7.5 µM
  TGI: > 18.4 µM
DU-145 prostate
  GI50: 3.57 µM
  TGI: 8.96 µM
EKVX NSCLC
  GI50: 1.22 µM
  TGI: > 25 µM
HCC-2998 colon
  GI50: 9.15 µM
  TGI: > 25 µM
HCT-116 colon
  GI50: 5.11 µM
  TGI: 13.6 µM
HCT-15 colon
  GI50: 6.52 µM
  TGI: > 25 µM
HL-60(TB) leukemia
  GI50: > 25 µM
  TGI: > 25 µM
HOP-62 NSCLC
  GI50: 5.03 µM
  TGI: 10.4 µM
HOP-92 NSCLC
  GI50: 3.31 µM
  TGI: 11 µM
HS 578T breast
  GI50: 7.47 µM
  TGI: > 25 µM
HT29 colon
  GI50: 8.64 µM
  TGI: > 25 µM
IGROV1 ovarian
  GI50: 4.66 µM
  TGI: > 25 µM
K-562 leukemia
  GI50: 9.7 µM
  TGI: > 25 µM
KM12 colon
  GI50: 7.22 µM
  TGI: > 19.4 µM
LOX IMVI melanoma
  GI50: 5.77 µM
  TGI: > 17 µM
M14 melanoma
  GI50: 10.7 µM
  TGI: > 25 µM
MALME-3M melanoma
  GI50: 9.31 µM
  TGI: 24.6 µM
MCF7 breast
  GI50: 4.61 µM
  TGI: 12.5 µM
MDA-MB-231 breast
  GI50: 5.95 µM
  TGI: > 19.5 µM
MDA-MB-435
  GI50: 7.02 µM
  TGI: > 25 µM
MOLT-4 leukemia
  GI50: > 25 µM
  TGI: > 25 µM
NCI-H226 lung
  GI50: 5.8 µM
  TGI: > 17.9 µM
NCI-H23 lung
  GI50: 7.5 µM
  TGI: 24.2 µM
NCI-H460 lung
  GI50: 5.04 µM
  TGI: 12.9 µM
NCI-H522 lung
  GI50: 5.29 µM
  TGI: > 25 µM
NCI/ADR-RES ovarian
  GI50: 6.94 µM
  TGI: > 25 µM
OVCAR-3 ovarian
  GI50: 3.82 µM
  TGI: 8.03 µM
OVCAR-4 ovarian
  GI50: 4.23 µM
  TGI: 12.3 µM
OVCAR-5 ovarian
  GI50: 7.34 µM
  TGI: > 25 µM
OVCAR-8 ovarian
  GI50: 7.3 µM
  TGI: > 25 µM
PC-3 prostate
  GI50: 7.49 µM
  TGI: > 22.8 µM
RPMI-8226 leukemia
  GI50: 14 µM
  TGI: > 25 µM
RXF 393 renal
  GI50: 2.91 µM
  TGI: 11.7 µM
SF-268 CNS
  GI50: 4.54 µM
  TGI: 12.9 µM
SF-295 CNS
  GI50: 5.45 µM
  TGI: 20.5 µM
SF-539 CNS
  GI50: 4.39 µM
  TGI: 9.69 µM
SK-MEL-2 melanoma
  GI50: 8.82 µM
  TGI: > 25 µM
SK-MEL-28 melanoma
  GI50: 5.82 µM
  TGI: > 17.7 µM
SK-MEL-5 melanoma
  GI50: 5.8 µM
  TGI: > 20.7 µM
SK-OV-3 ovarian
  GI50: 3.19 µM
  TGI: 12.7 µM
SN12C renal
  GI50: 12 µM
  TGI: > 25 µM
SNB-19 CNS
  GI50: 6.9 µM
  TGI: > 25 µM
SNB-75 CNS
  GI50: 5.26 µM
  TGI: 14.4 µM
SR leukemia
  GI50: 24.2 µM
  TGI: > 25 µM
SW-620 colon
  GI50: 7.16 µM
  TGI: > 25 µM
T-47D breast
  GI50: 3.18 µM
  TGI: 15.7 µM
TK-10 renal
  GI50: 1.46 µM
  TGI: 9.03 µM
U251 CNS
  GI50: 4.47 µM
  TGI: 10.2 µM
UACC-257 melanoma
  GI50: 9.72 µM
  TGI: > 25 µM
UACC-62 melanoma
  GI50: 16 µM
  TGI: > 25 µM
UO-31 renal
  GI50: 1.58 µM
  TGI: > 25 µM
